Measurements from the CombiSolv-Exp solvation set (Vermeire and Green 2021).

Experiment: solvent given as SMILES

c1ccc2c(c1)ccc1ccccc12
solvation free energy, 298 K (in C1CCOC1): -11.5 kcal/mol | solvation free energy, 298 K (in C1COCCO1): -11.3 kcal/mol | solvation free energy, 298 K (in CC(=O)N(C)C): -11.4 kcal/mol | solvation free energy, 298 K (in CC(C)(C)O): -9.55 kcal/mol | solvation free energy, 298 K (in CC(C)=O): -11.3 kcal/mol | solvation free energy, 298 K (in CC(C)CC(C)(C)C): -9.75 kcal/mol | solvation free energy, 298 K (in CC(C)CC(C)O): -9.7 kcal/mol | solvation free energy, 298 K (in CC(C)CCO): -9.73 kcal/mol | solvation free energy, 298 K (in CC(C)CO): -9.56 kcal/mol | solvation free energy, 298 K (in CC(C)O): -9.64 kcal/mol | solvation free energy, 298 K (in CCC(C)(C)O): -9.84 kcal/mol | solvation free energy, 298 K (in CCC(C)O): -9.64 kcal/mol | solvation free energy, 298 K (in CCCC(C)CO): -9.72 kcal/mol | solvation free energy, 298 K (in CCCC(C)O): -9.79 kcal/mol | solvation free energy, 298 K (in CCCCC(CC)CO): -9.87 kcal/mol | solvation free energy, 298 K (in CCCCCC): -10 kcal/mol | solvation free energy, 298 K (in CCCCCCC): -10.1 kcal/mol | solvation free energy, 298 K (in CCCCCCCC): -10.1 kcal/mol | solvation free energy, 298 K (in CCCCCCCCC=CCCCCCCCC(=O)OCC(COC(=O)CCCCCCCC=CCCCCCCCC)OC(=O)CCCCCCCC=CCCCCCCCC): -10.6 kcal/mol | solvation free energy, 298 K (in CCCCCCCCCC): -10.1 kcal/mol | solvation free energy, 298 K (in CCCCCCCCO): -10.3 kcal/mol | solvation free energy, 298 K (in CCCCCCCO): -10.1 kcal/mol | solvation free energy, 298 K (in CCCCCO): -10 kcal/mol | solvation free energy, 298 K (in CCCCO): -9.89 kcal/mol | solvation free energy, 298 K (in CCCCOC(C)=O): -11 kcal/mol | solvation free energy, 298 K (in CCCCOCCCC): -10.5 kcal/mol | solvation free energy, 298 K (in CCCO): -9.96 kcal/mol | solvation free energy, 298 K (in CCO): -10 kcal/mol | solvation free energy, 298 K (in CCOC(C)=O): -11.1 kcal/mol | solvation free energy, 298 K (in CN1CCCC1=O): -11.5 kcal/mol | solvation free energy, 298 K (in CO): -9.88 kcal/mol | solvation free energy, 298 K (in COC(C)(C)C): -10.7 kcal/mol | solvation free energy, 298 K (in COC(C)=O): -11.1 kcal/mol | solvation free energy, 298 K (in ClC(Cl)(Cl)Cl): -11 kcal/mol | solvation free energy, 298 K (in O): -3.8 kcal/mol | solvation free energy, 298 K (in O=C1CCCCC1): -11.4 kcal/mol

O=C(O)CCCCCCCc1ccccc1
solvation free energy, 298 K (in O): -8.98 kcal/mol

COc1cc(Cl)c(Cl)c(Cl)c1Cl
solvation free energy, 298 K (in O): -2.55 kcal/mol

O=C(OCc1ccccc1)c1ccccc1C(=O)OCc1ccccc1
solvation free energy, 298 K (in O): -11.3 kcal/mol

COc1ccccc1C(=O)O
solvation free energy, 298 K (in C1CCOC1): -11.8 kcal/mol | solvation free energy, 298 K (in C1COCCO1): -11.7 kcal/mol | solvation free energy, 298 K (in CC(C)(C)O): -11 kcal/mol | solvation free energy, 298 K (in CC(C)CCO): -10.8 kcal/mol | solvation free energy, 298 K (in CC(C)CO): -10.9 kcal/mol | solvation free energy, 298 K (in CC(C)O): -10.9 kcal/mol | solvation free energy, 298 K (in CC(C)OCCO): -11.2 kcal/mol | solvation free energy, 298 K (in CC(O)COC(C)(C)C): -11 kcal/mol | solvation free energy, 298 K (in CCC(C)O): -11 kcal/mol | solvation free energy, 298 K (in CCCC(C)O): -10.8 kcal/mol | solvation free energy, 298 K (in CCCCCCCCCCO): -10.5 kcal/mol | solvation free energy, 298 K (in CCCCCCCO): -10.8 kcal/mol | solvation free energy, 298 K (in CCCCCCO): -10.8 kcal/mol | solvation free energy, 298 K (in CCCCCO): -10.9 kcal/mol | solvation free energy, 298 K (in CCCCCOC(C)=O): -10.6 kcal/mol | solvation free energy, 298 K (in CCCCO): -11.1 kcal/mol | solvation free energy, 298 K (in CCCCOC(C)=O): -10.8 kcal/mol | solvation free energy, 298 K (in CCCCOCCO): -11.4 kcal/mol | solvation free energy, 298 K (in CCCO): -11.2 kcal/mol | solvation free energy, 298 K (in CCCOCCO): -11.3 kcal/mol | solvation free energy, 298 K (in CCO): -11.5 kcal/mol | solvation free energy, 298 K (in CCOC(C)=O): -11.2 kcal/mol | solvation free energy, 298 K (in CCOCC): -10.5 kcal/mol | solvation free energy, 298 K (in CCOCCO): -11.5 kcal/mol | solvation free energy, 298 K (in CO): -11.8 kcal/mol | solvation free energy, 298 K (in COC(C)=O): -11.3 kcal/mol | solvation free energy, 298 K (in COC(C)CCO): -11.4 kcal/mol

COc1ccc(C=O)cc1O
solvation free energy, 298 K (in O): -9.04 kcal/mol

CCCCCCCCCCCCC
solvation free energy, 298 K (in O): 4.12 kcal/mol

CC1CCCC(O)C1 (stereo not drawn)
solvation free energy, 298 K (in O): -5.21 kcal/mol

CC(C)CC(=O)CC(=O)CC(C)C
solvation free energy, 298 K (in O): -4.42 kcal/mol

FC(F)(F)C(F)(F)Cl
solvation free energy, 298 K (in CCCCCCCCC): -0.87 kcal/mol | solvation free energy, 298 K (in CCCCCCCCO): -0.39 kcal/mol | solvation free energy, 298 K (in CN1CCCC1=O): 0.07 kcal/mol | solvation free energy, 298 K (in CN(C)C=O): -1.54 kcal/mol | solvation free energy, 298 K (in O): 2.89 kcal/mol

CCC1CO1 (stereo not drawn)
solvation free energy, 298 K (in CC(C)O): -3.72 kcal/mol | solvation free energy, 298 K (in COC(=O)OC): -4.11 kcal/mol | solvation free energy, 298 K (in COC(C)=O): -4.16 kcal/mol | solvation free energy, 298 K (in ClC(Cl)Cl): -4.9 kcal/mol | solvation free energy, 298 K (in O): -2.93 kcal/mol

COc1ccc2cc(C(C)C(=O)O)ccc2c1 (stereo not drawn)
solvation free energy, 298 K (in C1CCOC1): -17.9 kcal/mol | solvation free energy, 298 K (in C1COCCO1): -17.7 kcal/mol | solvation free energy, 298 K (in CC(C)CCO): -16.4 kcal/mol | solvation free energy, 298 K (in CC(C)CO): -16.3 kcal/mol | solvation free energy, 298 K (in CC(C)O): -16.6 kcal/mol | solvation free energy, 298 K (in CCC(C)O): -16.6 kcal/mol | solvation free energy, 298 K (in CCCC(C)O): -16.5 kcal/mol | solvation free energy, 298 K (in CCCCCCCCCCO): -16.2 kcal/mol | solvation free energy, 298 K (in CCCCCCCO): -16.5 kcal/mol | solvation free energy, 298 K (in CCCCCCO): -16.5 kcal/mol | solvation free energy, 298 K (in CCCCCO): -16.5 kcal/mol | solvation free energy, 298 K (in CCCCO): -16.6 kcal/mol | solvation free energy, 298 K (in CCCCOC(C)=O): -16.6 kcal/mol | solvation free energy, 298 K (in CCCO): -16.6 kcal/mol | solvation free energy, 298 K (in CCO): -16.7 kcal/mol | solvation free energy, 298 K (in CCOC(C)=O): -17.1 kcal/mol | solvation free energy, 298 K (in CCOCC): -16.7 kcal/mol | solvation free energy, 298 K (in CO): -16.7 kcal/mol | solvation free energy, 298 K (in COC(C)=O): -17 kcal/mol

CN1C2CCC1CC(OC(=O)C(CO)c1ccccc1)C2 (stereo not drawn)
solvation free energy, 298 K (in CCO): -18 kcal/mol

C=C1CCC2CC3C(C)CCC13C2(C)C (stereo not drawn)
solvation free energy, 298 K (in O): 0.83 kcal/mol

CCCCCOC(=O)CCC
solvation free energy, 298 K (in O): -2.55 kcal/mol

Ic1ccccc1
solvation free energy, 298 K (in C1CCOC1): -7.38 kcal/mol | solvation free energy, 298 K (in C1COCCO1): -7.22 kcal/mol | solvation free energy, 298 K (in CCCCCCC): -6.27 kcal/mol | solvation free energy, 298 K (in CCCCCCCCCCCCCCCC): -6.11 kcal/mol | solvation free energy, 298 K (in CN(C)C=O): -7.09 kcal/mol | solvation free energy, 298 K (in ClC(Cl)(Cl)Cl): -6.81 kcal/mol | solvation free energy, 298 K (in N#Cc1ccccc1): -6.98 kcal/mol | solvation free energy, 298 K (in O): -1.75 kcal/mol | solvation free energy, 298 K (in OCCO): -5.28 kcal/mol

FC1(F)C(F)(F)C(F)(F)C1(F)F
solvation free energy, 298 K (in O): 3.43 kcal/mol

CCCOCCO
solvation free energy, 298 K (in O): -6.4 kcal/mol

O=Cc1ccc(C(=O)O)cc1
solvation free energy, 298 K (in CN1CCCC1=O): -12.8 kcal/mol | solvation free energy, 298 K (in O): -8.94 kcal/mol

C=CC#N
solvation free energy, 298 K (in O): -3.34 kcal/mol

Clc1ccc(-c2cc(Cl)c(Cl)c(Cl)c2)cc1Cl
solvation free energy, 298 K (in O): -3.79 kcal/mol

Cc1ccc(N(O)C(=O)c2ccccc2C)cc1
solvation free energy, 298 K (in O): -11.5 kcal/mol

Nc1ccc(Cl)cc1
solvation free energy, 298 K (in O): -5.91 kcal/mol

CNC(=O)Oc1cccc2c1OC(C)(C)C2
solvation free energy, 298 K (in O): -9.61 kcal/mol

COP(=S)(OC)SCn1nnc2ccccc2c1=O
solvation free energy, 298 K (in O): -10 kcal/mol

O=c1[nH]cc(I)c(=O)[nH]1
solvation free energy, 298 K (in O): -18.7 kcal/mol

c1ccc2c(c1)CCC2
solvation free energy, 298 K (in O): -1.42 kcal/mol

FC(F)(Cl)C(F)(F)Cl
solvation free energy, 298 K (in CCCCCCCC(=O)OCC(COC(=O)CCCCCCC)OC(=O)CCCCCCC): -1.63 kcal/mol | solvation free energy, 298 K (in CCCCCCCCO): -1.61 kcal/mol | solvation free energy, 298 K (in CN1CCCC1=O): -1.49 kcal/mol | solvation free energy, 298 K (in CN(C)C=O): -1.6 kcal/mol | solvation free energy, 298 K (in O): 2.25 kcal/mol

C1COCCOCCOCCOCCO1
solvation free energy, 298 K (in Cc1cccc(C)c1): -10.9 kcal/mol | solvation free energy, 298 K (in O): -12.8 kcal/mol

CCCCCCCCCCC
solvation free energy, 298 K (in CCCCCC): -7.56 kcal/mol | solvation free energy, 298 K (in CN(C)C=O): -5.57 kcal/mol | solvation free energy, 298 K (in COCCO): -5.15 kcal/mol

ClC=CCl
solvation free energy, 298 K (in COC(C)=O): -3.98 kcal/mol | solvation free energy, 298 K (in ClCCCl): -3.71 kcal/mol

C1=CCCC1
solvation free energy, 298 K (in CN1CCCC1=O): -2.84 kcal/mol | solvation free energy, 298 K (in CN(C)C=O): -2.93 kcal/mol | solvation free energy, 298 K (in CS(C)=O): -2.72 kcal/mol | solvation free energy, 298 K (in O): 0.54 kcal/mol | solvation free energy, 298 K (in O=CN1CCOCC1): -2.52 kcal/mol

CC(C)NC(C)C
solvation free energy, 298 K (in O): -3.22 kcal/mol

ClC(Cl)=C(Cl)Cl
solvation free energy, 298 K (in C1CCCC1): -5.37 kcal/mol | solvation free energy, 298 K (in C1CCOC1): -5.43 kcal/mol | solvation free energy, 298 K (in C1COCCO1): -5.1 kcal/mol | solvation free energy, 298 K (in CCC(C)=O): -4.98 kcal/mol | solvation free energy, 298 K (in CCCCCCCCCCCCCCCC): -4.88 kcal/mol | solvation free energy, 298 K (in CS(C)=O): -4.27 kcal/mol | solvation free energy, 298 K (in ClC(Cl)(Cl)Cl): -5.48 kcal/mol | solvation free energy, 298 K (in ClCCCl): -5.05 kcal/mol | solvation free energy, 298 K (in O): -0.06 kcal/mol

C=C1CCC2C(C)CCC3C(C12)C3(C)C (stereo not drawn)
solvation free energy, 298 K (in O): 0.42 kcal/mol

CC(=O)C(C)O (stereo not drawn)
solvation free energy, 298 K (in O): -4.29 kcal/mol

CCCCCC(N)=O
solvation free energy, 298 K (in O): -9.31 kcal/mol

C=C1CCC(C(C)C)c2cc(C)ccc21 (stereo not drawn)
solvation free energy, 298 K (in O): -1.08 kcal/mol

c1ccc(Cn2ccnc2)cc1
solvation free energy, 298 K (in O): -7.63 kcal/mol

O=C(c1cc([N+](=O)[O-])cc([N+](=O)[O-])c1)N(O)c1ccccc1
solvation free energy, 298 K (in O): -15.6 kcal/mol

CCOC(=O)CCC(=O)OCC
solvation free energy, 298 K (in O): -5.71 kcal/mol

O=[O+][O-]
solvation free energy, 298 K (in COC(C)=O): -0.29 kcal/mol | solvation free energy, 298 K (in O): 0.82 kcal/mol

Nc1ncnc2c1ncn2C1CC(O)C(CO)O1 (stereo not drawn)
solvation free energy, 298 K (in C=CCCCCCCC=C): -16.6 kcal/mol | solvation free energy, 298 K (in C=CCCCCCCCCCCCCCC): -15.8 kcal/mol | solvation free energy, 298 K (in O): -24.3 kcal/mol

CN(C)C(=O)c1ccccc1
solvation free energy, 298 K (in O): -9.29 kcal/mol
